“Also recorded” adds a separate entry of the source. Ends that are not written are not given here.

In experiment [1] the test system is murine BMNCs and CFU-GM progenitor cells. The experiment in a line: Migration of murine BMNCs and CFU-GM progenitors to SDF-1 gradient after cationic peptide priming. Type of experiment: cell-based. Conditions: for migration of CFU-GM progenitor cells in response to SDF-1 gradient / migration of murine BMNCs in response to SDF-1 gradient: SDF-1 50 ng/ml; for chemotactic activity alone: without SDF-1. The procedure: FIG. 8A-B—A) BM mononuclear cell and B) CFU-GM migration in response to an SDF-1 gradient after priming with LL-37 or hBD-2. Values are fold increases of migrated cells compared to media alone.
FIG. 17A-B—Cationic peptides released from granulocytes enhance responsiveness of HSPCs to SDF-1 gradient. […] Values are the fold increases of migrated cells compared to media alone. M, media alone; SDF-1 (L), 50 ng/ml; SDF-1 (H), 300 ng/ml; C3a, 1 μg/ml. * P<0.05 as compared with SDF-1 (50 ng/ml) alone. The data shown represent the combine results from four independent experiments carried out in triplicate per group (n=12).
We also evaluated the effect of complement fragment 5a (C5a). […] After leaving the BM, granulocytes undergo degranulation in response to plasma C5a and secrete cationic peptides, such as cathelicidin (LL-37) and β-defensin-2 (hBD-2). […] It was hypothesized that this response may be affected by the distribution of membrane lipids by cationic peptides. […] Direct confocal analysis of CXCR4 and lipid raft colocalization in the presence or absence of cationic peptides confirmed these findings.

The subject of a further experiment is CXCR4. The experiment in a line: Western blot of CXCR4 in lipid raft membrane fractions, cationic peptides (Nalm-6). Type of experiment: cell-based, human. The protocol: (§1) FIG. 18A-B—Priming effect of cationic peptides is dependent on enhanced incorporation of CXCR4 into lipid rafts. (A) Western blot analysis of the localization of CXCR4 in various fractions of cell membranes. Membranes enriched in lipid rafts (fractions 3-5) and depleted of lipid rafts (fractions 9-11). Human pre-B cell line, Nalm-6, was stimulated with […] β2-defensin (hBD-2) (250 ng/ml) or was not stimulated (control). CXCR4 was detected in these membrane fractions by Western blot along with Lyn, a marker of lipid rafts. Experiments were performed three times with similar results. (B) LL-37-induced enhancement of THP-1 cell migration to SDF-1 gradient was inhibited by 1 h pretreatment with MβCD (1.0 or 2.5 mM). * P<0.05 as compared with migration of control cells in the absence of LL-37 (2.5 μg/ml). Lipid raft formation was analyzed. Shown are representative of three independent experiment carried out in triplicate per group. The data shown represent the combine results from four independent experiments carried out in triplicate per group (n=12).
(§2) Since enhanced responsiveness of HSPCs to SDF-1 gradient in the presence of C3a (priming effect) is mediated by incorporation of CXCR4 into membrane lipid rafts, we tested if similar phenomenon is responsible for LL-37 or β2D-dependent priming. […]

For the next experiment, the system named is THP-1 cell. The experiment in a line: THP-1 cell migration to SDF-1 gradient with LL-37 and MβCD pretreatment. In kind it is cell-based. The protocol:
as §1, §2

The subject of another experiment is CD34+ cells. The experiment in a line: Transwell chemotaxis of CD34+ cells to an SDF-1 gradient (priming). Type of experiment: cell-based, human. The following applies: pre-incubated 1 hr with MβCD (2.5 mM); low dose of SDF-1. The procedure: FIG. 11A-B—Effect of SLP and its components on chemotaxis of CD34^+ cells. Panel A: Chemotaxis of BM CD34^+ cells towards medium alone (control), SDF-1 low (10 ng/mL) alone, SLP (combined SLP from three patients), SDF-1 low+SLP, and SDF-1 high (300 ng/mL). Data are pooled from quadruplicate samples from three independent experiments. *p<0.00001. Panel B: Chemotaxis of UCB CD34^+ cells to medium alone (control), SDF-1 low (10 ng/mL) alone and SDF-1 low (10 ng/mL)+uPAR (1 μg/mL) or +ICAM (1 μg/mL) or +VCAM (1 μg/mL) or +FN (2 μg/mL), or +FG (4 μg/mL) or +C3a (1 μg/mL). Data are pooled from quadruplicate samples from three independent experiments. * p<0.00001.
Chemotaxis of CD34^+ cells to medium alone (control), C3a (1 μg/ml), C3adesArg (1 μg/ml), SDF-1 low (10 ng/mL) alone, and SDF-1 low (10 ng/mL)+C3a low (0.1 μg/ml) or SDF-1 low (10 ng/mL)+C3a (1 μg/ml) or SDF-1 low (10 ng/mL)+C3adesArg (1 μg/ml). Data are pooled from quadruplicate samples from three independent experiments.* p<0.00001.
FIG. 13A-B—Chemotaxis of cells to an SDF-1 gradient is lipid raft-dependent. Panel A: Chemotaxis of CD34^+ cells to medium alone (control), SDF-1 (300 ng/mL) and SDF-1 (300 ng/mL) after preincubation for 1 hr with Amphotericin (10 μg/mL) or Nystatin (50 μg/mL). Cells were collected after chemotaxis from the lower chambers and plated in a clonogenic assay. The number of CFU-GM and BFU-E colonies formed by harvested cells is shown as a percentage of control values. Data are pooled from quadruplicate samples from three independent experiments. *p<0.0001. Panel B: Chemotaxis of CD34^+ cells towards medium alone (control), SDF-1 low (10 ng/mL) alone, or SDF-1 low with cells exposed to C3a (1 μg/mL). Cells pretreated before chemotaxis for 1 hr with MβCD (2.5 mM) are shown as gray bars. Data are pooled from quadruplicate samples from three independent experiments. * p<0.00001.
HSPCs from the mPB engraft faster compared to HSPCs aspirated from BM. To test the hypothesis that mPB-derived HSPCs are primed in their responses to SDF-1 by molecules present in SLP, we pooled together SLP from three patients and exposed BM or UCB CD34^+ cells to the SLP during chemotaxis to a low (10 ng/mL) dose of SDF-1.
To address this issue further, the formation of rafts in the cells was perturbed by MβCD, which depletes cholesterol from the cell membrane. The CD34^+ cells were pre-incubated with MβCD for 1 hr. Chemotaxis to a low dose of SDF-1 in the presence of C3a (in the upper chambers) was evaluated.

Experiment [2] relates to syngeneic BM mononuclear cells. The experiment in a line: Murine BM transplant with BM mononuclear cells exposed ex vivo to LL-37. In kind it is in vivo. The following applies: BM exposed ex vivo 30 minutes; lethally irradiated recipients. The procedure: Leukophoresis products enriched in activated granulocytes release hBD-2 and LL-37. The question was whether this might explain why mobilized peripheral blood hematopoietic progenitors engrafts substantially faster relative to marrow. We therefore performed studies in a murine BM transplant model where syngeneic BM mononuclear cells were exposed ex vivo to LL-37 for 30 minutes and subsequently transplanted into lethally irradiated recipients. […] On the basis of these findings, this represents a second strategy for reducing the period of neutropenia in recipients of UCB

Another experiment deals with DNA methyltransferase. The experiment in a line: miR-184 expression by RT-PCR in adult CD4 T-cells treated with 5-aza deoxycytidine. Type of experiment: cell-based, human. Conditions: 10 uM for 24 h. The procedure: FIG. 29A-B—A.) Schematic of the genomic region surrounding hsa-miR-184. Dots denote CpG sites and a putative CpG island (defined by observed/expected CpG incidence>[…], GC>50%, length>100 bp) located closely upstream. B) Adult CD4 T-cells were cultured with and without the DNA methyltransferase blocker 5-aza deoxycytidine (5-aza) for 24 h, a portion stimulation for 6 h, then assayed for miR-184 expression by RT-PCR.
However, expression of many miRNA species is known to be mediated by epigenetic events such as DNA methylation. […] Indeed we observed a small predicted (obs/exp>0.6, GC>50%) CpG island upstream of the miR-184 genomic site as well as several additional downstream CpG sites (FIG. 29 A). Inhibition of […] gene silencing is accomplished by treating with 5-aza-deoxycytidine, which is incorporated into replicating DNA and blocks DNA methyltransferase enzymes.

On to “hBD-2: β-defensin-2; recombinant cationic peptide released from granulocytes (GIGDPVTCLKSGAICHPVFCPRRYKQIGTCGLPGTKCCKKP; ends and bridges not checked; cysteine pairing not given here; UniProt O15263 24-64, looked up)”, for which, in experiment [1], the “priming effect compared with that described for C3a” value was “several times higher”, the “responsiveness of hematopoietic progenitors to plasma SDF-1 (priming effect)” value is “highly enhanced”, the “migration of CFU-GM progenitor cells in response to SDF-1 gradient” value (shortened to “migration of CFU-GM progenitor cells”) is recorded as “strongly enhanced” and the “migration of murine BMNCs in response to SDF-1 gradient” value (from here on “migration of murine BMNCs in response”) is recorded as “strongly enhanced”. Moreover, the chemotactic activity alone entry in experiment [1] is “do not show chemotactic activity”. In experiment [1] (listed as β2D), the “migration of CFU-GM progenitor cells” value is listed as “enhance/prime migration” and the “migration of murine BMNCs in response” value was “enhance/prime migration”. In addition, in the experiment on CXCR4, the “incorporation of CXCR4 into membrane lipid rafts” value is on record as “increase incorporation of CXCR4”.

For the compound “methyl-β-cyclodextrin [MβCD, reference compound]”, the “LL-37-enhanced migration/responsiveness to SDF-1 gradient” value in the experiment with THP-1 cell (1 h pretreatment with MβCD (1.0 or 2.5 mM), LL-37 2.5 μg/ml) is “inhibited”. Further, the fMLP mediated migration result in the experiment on THP-1 cell (control experiments, MβCD pretreatment) is listed as “did not affect”. Besides, the “effect on the priming effects of LL-37 and hBD-2” value in experiment [1] (inhibitor of cell membrane raft formation) was “inhibit the priming effects”. Besides, the “inhibition of the priming effect of C3a” value in the experiment on CD34+ cells is around 60%.

As for “LL-37: active fragment of cathelicidin; recombinant cationic peptide released from granulocytes (LLGDFFRKSKEKIGKEFKRIVQRIKDFLRNLVPRTES; Antibacterial peptide LL-37; UniProt P49913 134-170, looked up)”, in experiment [1], the “priming effect compared with that described for C3a” value is recorded as “several times higher”, the “responsiveness of hematopoietic progenitors to plasma SDF-1 (priming effect)” value is “highly enhanced”, the “migration of CFU-GM progenitor cells” value is given as “enhance/prime migration; also recorded: strongly enhanced” and the “migration of murine BMNCs in response” value is given as “enhance/prime migration; also recorded: strongly enhanced”. Besides, in experiment [1], the chemotactic activity alone result is reported as “do not show chemotactic activity”. In addition, in experiment [2], the “accelerated recovery of platelets and neutrophils compared to unprimed control cells” value lay in the range of 3 to 5 days. The “incorporation of CXCR4 into membrane lipid rafts” value in the experiment with CXCR4 is listed as “increase incorporation of CXCR4”.

In the case of `Nc1ncn([C@H]2C[C@H](O)[C@@H](CO)O2)c(=O)n1` [5-aza deoxycytidine, 5-aza-deoxycytidine], the miR-184 expression result in the experiment with DNA methyltransferase is reported as “significant increase”. Further, the “miR-184 expression increase when cells were stimulated in vitro” value in the experiment on DNA methyltransferase (stimulation 6 h) is “abrogated”.

(Values after patent publication US9233127B2, “Compositions and methods for CXCR4 signaling and umbilical cord blood stem cell engraftment” (University of Virginia Patent Foundation, priority 2012, dated 2016).)
